Test results published in patent US12521440B2, “Degradation of bruton's tyrosine kinase (BTK) by conjugation of BTK inhibitors with E3 ligase ligand and methods of use” (BeOne Medicines I GmbH, priority 2021, dated 2026).

Legend:
[1] = target: T1, BTK (Homo sapiens, UniProt Q06187); test: BTK degradation in TMD-8 cells (HTRF assay); type: cell-based; settings: 6 h treatment, HTRF BTK degradation IC50 (DC50)
T1 construct: endogenous in cells; host or cells: TMD-8 cells
Description: TMD-8 cells were treated with compounds diluted in 0.2% DMSO, dilution was done according to the following protocol: (1) making 500×stock solution in DMSO from 1 mM by 6-fold dilution, total 8 doses were included; (2) making 2×solution in cell culture medium by transferring 0.5 μl 500×stock solution into 125 μl medium; (3) adding 15 μl of 2×solution to cells for incubation of 6 h.
After 6 h treatment, 10 μl 4×lysis buffer was added to each well; the plate was sealed and incubated for 30 min at room temperature on a plate shaker; Once the cells was lysed, 16 μL of cell lysate were transferred to a PE 384-well HTRF detection plate; 4 μL of pre-mixed HTRF antibodies were added to each well; the plate was covered with a plate sealer, and then spinned at 1000 rpm for 1 min, then incubated overnight at room temperature; the results were read on BMG PheraStar with HTRF protocol (337 nm-665 nm-620 nm).
(§1) The IC50 (DC50) value of a compound can be obtained by fitting the following equation Y=Bottom+(TOP−Bottom)/(1+((IC50/X)^hillslope)) wherein, X and Y are known values, and IC50, Hillslope, Top and Bottom are the parameters obtained by fitting with software. Y is the inhibition percentage (calculated from the equation), X is the concentration of the compound; IC50 is the concentration of the compound when the 50% inhibition is reached. The smaller the IC50 value is, the stronger the inhibitory ability of the compound is. Vice versa, the higher the IC50 value is, the weaker the ability the inhibitory ability of the compound is; Hillslope represents the slope of the fitted curve, generally around 1*; Bottom represents the minimum value of the curve obtained by data fitting, which is generally 0%±20%; Top represents the maximum value of the curve obtained by data fitting, which is generally 100%±20%. The experimental data were fitted by calculating and analyzing with Dotmatics data analysis software. HEK-293 Cell Treatment

[2] = tested on: HEK-293 cells; test: HEK-293 cytotoxicity detection (CellTiter-Glo); type: cell-based; settings: Homo sapiens, 72 h incubation, read-out: HEK293
Description: as §1
HEK-293 cells were treated with compounds diluted in 0.2% DMSO, dilution was done according to the following protocol: (1) making 500×stock solution in DMSO from 5 mM by 4-fold dilution, total 8 doses were included; (2) making 2×solution in cell culture medium by transferring 0.5 ul 500×stock solution into 125 ul medium; (3) adding 50 ul of 2×solution to cells for incubation of 72 h.
25 μl of the CellTiter-Glo® Reagent [(Promega)—Cat No. G7572] was added to each well in the 96-well plate. The contents were mixed for 2 minutes on an orbital shaker to induce cell lysis. The plate was then allowed to incubate at room temperature for 10 minutes to stabilize luminescent signal. Luminescence was recorded on BMG PheraStar with luminescence protocol.
as §1, with “IC50” for “IC50 (DC50)”, “Wherein,” for “wherein,”, “software.” for “software. HEK-293 Cell Treatment”

T1 sequence (Q06187 whole entry): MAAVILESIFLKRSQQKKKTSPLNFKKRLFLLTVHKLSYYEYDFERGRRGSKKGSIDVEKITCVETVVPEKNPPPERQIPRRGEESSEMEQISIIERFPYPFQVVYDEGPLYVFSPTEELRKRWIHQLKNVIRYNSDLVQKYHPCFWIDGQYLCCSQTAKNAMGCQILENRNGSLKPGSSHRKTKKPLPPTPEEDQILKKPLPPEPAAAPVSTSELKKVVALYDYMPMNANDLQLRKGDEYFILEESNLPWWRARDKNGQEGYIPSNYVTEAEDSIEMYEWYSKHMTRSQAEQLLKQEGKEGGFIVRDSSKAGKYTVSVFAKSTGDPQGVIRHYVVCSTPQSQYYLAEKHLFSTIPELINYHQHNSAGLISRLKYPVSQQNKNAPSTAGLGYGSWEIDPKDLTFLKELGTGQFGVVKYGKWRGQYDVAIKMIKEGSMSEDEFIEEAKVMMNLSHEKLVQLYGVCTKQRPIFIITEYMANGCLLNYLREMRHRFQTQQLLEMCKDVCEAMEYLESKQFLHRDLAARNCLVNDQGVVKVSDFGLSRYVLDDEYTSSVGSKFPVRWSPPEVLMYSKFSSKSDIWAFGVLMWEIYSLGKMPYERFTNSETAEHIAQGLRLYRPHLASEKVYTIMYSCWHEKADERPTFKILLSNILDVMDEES

SMILES	DC50 [1]	IC50 [2]
Cc1cc(-c2cc(Nc3ccc(N4CCN(CC5CCN(c6ccc(N7CCC(=O)NC7=O)cc6)CC5)CC4)cc3)ncn2)c(F)cc1[C@@H](C)NC(=O)c1nc(C(C)(C)C)no1 [Example 1, (R)-3-(tert-butyl)-N-(1-(4-(6-((4-(4-((1-(4-(2,4-dioxotetrahydropyrimidin-1(2H)-yl)phenyl)piperidin-4-yl)methyl)piperazin-1-yl)phenyl)amino)pyrimidin-4-yl)-5-fluoro-2-methylphenyl)ethyl)-1,2,4-oxadiazole-5-carboxamide]	21.3 nM	> 10000 nM
Cc1cc(-c2cc(Nc3ccc(N4CCN(CC5CCN(c6ccc(N7CCC(=O)NC7=O)c(F)c6)CC5)CC4)cc3)ncn2)c(F)cc1[C@@H](C)NC(=O)c1nc(C(C)(C)C)no1 [Example 2, (R)-3-(tert-butyl)-N-(1-(4-(6-((4-(4-((1-(4-(2,4-dioxotetrahydropyrimidin-1(2H)-yl)-3-fluorophenyl)piperidin-4-yl)methyl)piperazin-1-yl)phenyl)amino)pyrimidin-4-yl)-5-fluoro-2-methylphenyl)ethyl)-1,2,4-oxadiazole-5-carboxamide]	236 nM	> 10000 nM
Cc1cc(-c2cc(Nc3ccc(N4CCN(CC5CCN(c6ccc(N7CCC(=O)NC7=O)cc6F)CC5)CC4)cc3)ncn2)c(F)cc1[C@@H](C)NC(=O)c1nc(C(C)(C)C)no1 [Example 3, (R)-3-(tert-butyl)-N-(1-(4-(6-((4-(4-((1-(4-(2,4-dioxotetrahydropyrimidin-1(2H)-yl)-2-fluorophenyl)piperidin-4-yl)methyl)piperazin-1-yl)phenyl)amino)pyrimidin-4-yl)-5-fluoro-2-methylphenyl)ethyl)-1,2,4-oxadiazole-5-carboxamide]	104 nM	> 10000 nM
Cc1cc(-c2cc(Nc3ccc(N4CCN(CCC5CCN(c6ccc(C7CCC(=O)NC7=O)c(F)c6)CC5)CC4)cc3)ncn2)c(F)cc1[C@@H](C)NC(=O)c1nc(C(C)(C)C)no1 (stereo partly drawn) [Example 4, 3-(tert-butyl)-N-((1R)-1-(4-(6-((4-(4-(2-(1-(4-(2,6-dioxopiperidin-3-yl)-3-fluorophenyl)piperidin-4-yl)ethyl)piperazin-1-yl)phenyl)amino)pyrimidin-4-yl)-5-fluoro-2-methylphenyl)ethyl)-1,2,4-oxadiazole-5-carboxamide]	16.9 nM	> 10000 nM
Cc1cc(-c2cc(Nc3cccc(N4CCN(CC5CCN(c6ccc(N7CCC(=O)NC7=O)cc6)CC5)CC4)c3)ncn2)c(F)cc1[C@@H](C)NC(=O)c1nc(C(C)(C)C)no1 [Example 5, (R)-3-(tert-butyl)-N-(1-(4-(6-((3-(4-((1-(4-(2,4-dioxotetrahydropyrimidin-1(2H)-yl)phenyl)piperidin-4-yl)methyl)piperazin-1-yl)phenyl)amino)pyrimidin-4-yl)-5-fluoro-2-methylphenyl)ethyl)-1,2,4-oxadiazole-5-carboxamide]		> 10000 nM
Cc1cc(-c2cc(Nc3cccc(N4CCN(C5CC(c6ccc(NC7CCC(=O)NC7=O)cc6)C5)CC4)c3)ncn2)c(F)cc1[C@@H](C)NC(=O)c1nc(C(C)(C)C)no1 (stereo partly drawn) [Example 6, 3-(tert-butyl)-N-((1R)-1-(4-(6-((3-(4-(3-(4-((2,6-dioxopiperidin-3-yl)amino)phenyl)cyclobutyl)piperazin-1-yl)phenyl)amino)pyrimidin-4-yl)-5-fluoro-2-methylphenyl)ethyl)-1,2,4-oxadiazole-5-carboxamide]	48.1 nM	> 10000 nM
Cc1cc(-c2cc(Nc3ccc(N4CCN(CC5CCN(c6ccc(N7CCC(=O)NC7=O)cc6)CC5)CC4)cc3)ncn2)ccc1[C@@H](C)NC(=O)c1nc(C(C)(C)C)no1 [Example 7, (R)-3-(tert-butyl)-N-(1-(4-(6-((4-(4-((1-(4-(2,4-dioxotetrahydropyrimidin-1(2H)-yl)phenyl)piperidin-4-yl)methyl)piperazin-1-yl)phenyl)amino)pyrimidin-4-yl)-2-methylphenyl)ethyl)-1,2,4-oxadiazole-5-carboxamide]	12.8 nM	> 10000 nM
Cc1cc(-c2cc(Nc3ccc(N4CCN(CC5CCN(c6ccc(N7CCC(=O)NC7=O)cc6)CC5)CC4)cn3)ncn2)c(F)cc1[C@@H](C)NC(=O)c1nc(C(C)(C)C)no1 [Example 8, (R)-3-(tert-butyl)-N-(1-(4-(6-((5-(4-((1-(4-(2,4-dioxotetrahydropyrimidin-1(2H)-yl)phenyl)piperidin-4-yl)methyl)piperazin-1-yl)pyridin-2-yl)amino)pyrimidin-4-yl)-5-fluoro-2-methylphenyl)ethyl)-1,2,4-oxadiazole-5-carboxamide]	1.48 nM	> 10000 nM
Cc1c([C@@H](C)NC(=O)c2nc(C(C)(C)C)no2)ccc(-c2cc(Nc3ccc(N4CCN(CC5CCN(c6ccc(N7CCC(=O)NC7=O)cc6)CC5)CC4)cn3)ncn2)c1F [Example 9, (R)-3-(tert-butyl)-N-(1-(4-(6-((5-(4-((1-(4-(2,4-dioxotetrahydropyrimidin-1(2H)-yl)phenyl)piperidin-4-yl)methyl)piperazin-1-yl)pyridin-2-yl)amino)pyrimidin-4-yl)-3-fluoro-2-methylphenyl)ethyl)-1,2,4-oxadiazole-5-carboxamide]	138 nM	> 10000 nM
Cc1cc(-c2cc(Nc3ccc(N4CCN(CC5CCN(c6ccc(N7CCC(=O)NC7=O)cc6)CC5)CC4)nc3)ncn2)ccc1[C@@H](C)NC(=O)c1nc(C2(C)CC2)no1 [Example 10, (R)—N-(1-(4-(6-((6-(4-((1-(4-(2,4-dioxotetrahydropyrimidin-1(2H)-yl)phenyl)piperidin-4-yl)methyl)piperazin-1-yl)pyridin-3-yl)amino)pyrimidin-4-yl)-2-methylphenyl)ethyl)-3-(1-methylcyclopropyl)-1,2,4-oxadiazole-5-carboxamide]	89.5 nM	> 10000 nM
Cc1cc(-c2cc(Nc3ccc(N4CCN(CC5CCN(c6ccc(N7CCC(=O)NC7=O)cc6)CC5)CC4)cn3)ncn2)ccc1[C@@H](C)NC(=O)c1nc(C2(C)CC2)no1 [Example 11, (R)—N-(1-(4-(6-((5-(4-((1-(4-(2,4-dioxotetrahydropyrimidin-1(2H)-yl)phenyl)piperidin-4-yl)methyl)piperazin-1-yl)pyridin-2-yl)amino)pyrimidin-4-yl)-2-methylphenyl)ethyl)-3-(1-methylcyclopropyl)-1,2,4-oxadiazole-5-carboxamide]	1.21 nM	> 10000 nM
Cc1cc(-c2cc(Nc3ccc(N4CCN(C5CN(c6ccc(N7CCC(=O)NC7=O)cc6)C5)CC4)cn3)ncn2)ccc1[C@@H](C)NC(=O)c1nc(C2(C)CC2)no1 [Example 12, (R)—N-(1-(4-(6-((5-(4-(1-(4-(2,4-dioxotetrahydropyrimidin-1(2H)-yl)phenyl)azetidin-3-yl)piperazin-1-yl)pyridin-2-yl)amino)pyrimidin-4-yl)-2-methylphenyl)ethyl)-3-(1-methylcyclopropyl)-1,2,4-oxadiazole-5-carboxamide]	1.28 nM	> 10000 nM
Cc1cc(-c2cc(Nc3ccc(N4CCN(CCc5cc(F)c([C@H]6CCC(=O)NC6=O)c(F)c5)CC4)cn3)ncn2)ccc1[C@@H](C)NC(=O)c1nc(C(C)(C)C)no1 [Example 46, 3-(tert-butyl)-N—((R)-1-(4-(6-((5-(4-(4-((R)-2,6-dioxopiperidin-3-yl)-3,5-difluorophenethyl)piperazin-1-yl)pyridin-2-yl)amino)pyrimidin-4-yl)-2-methylphenyl)ethyl)-1,2,4-oxadiazole-5-carboxamide]		> 10000 nM
